# Assay results published in patent US9469650B2, “Melampomagnolide B derivatives” (BOARD OF TRUSTEES OF THE UNIVERSITY OF ARKANSAS, priority 2013, dated 2016).
# Read-outs that look alike come from different tables or passages of the source.
# Assays:
# K-562 = assay: panel of 60 human tumor cell lines, growth inhibition (Leukemia); conditions: K-562
# MOLT-4 = assay: as above; conditions: MOLT-4
# SR = assay: as above
# LOX IMVI = assay: panel of 60 human tumor cell lines, growth inhibition (Melanoma)
# M14 = assay: as above; conditions: M14
# SK-MEL-28 = assay: as above; conditions: SK-MEL-28
# SF-268 = assay: panel of 60 human tumor cell lines, growth inhibition (CNS Cancer); conditions: SF-268
# SF-295 = assay: as above; conditions: SF-295
# SNB-19 = assay: as above; conditions: SNB-19
# SNB-75 = assay: as above; conditions: SNB-75
# HCC-2998 = assay: panel of 60 human tumor cell lines, growth inhibition (Colon Cancer); conditions: HCC-2998
# SW-620 = assay: as above; conditions: SW-620
# ACHN = assay: panel of 60 human tumor cell lines, growth inhibition (Renal Cancer)
# CAKI-1 = assay: as above; conditions: CAKI-1
# UO-31 = assay: as above; conditions: UO-31
# HS 578T = assay: panel of 60 human tumor cell lines, growth inhibition (Breast Cancer)
# T-47D = assay: as above; conditions: T-47D
# NCI-H226 = assay: panel of 60 human tumor cell lines, growth inhibition (Non-Small Cell Lung Cancer); conditions: NCI-H226
smiles,measurement,setting,value
C=C1C(=O)O[C@H]2[C@H]1CC/C(COC(=O)NCCN1CCCCC1)=C\CC[C@@]1(C)O[C@@H]21 [JVM 2-13],GI50,HL-60(TB),3.5 µM
same,TGI,HL-60(TB),11.3 µM
same,Percent Growth,HL-60(TB); Log10 Concentration −4.0,−44%
same,Percent Growth,HL-60(TB); Log10 Concentration −5.0,2%
same,Percent Growth,HL-60(TB); Log10 Concentration −6.0,107%
same,Percent Growth,HL-60(TB); Log10 Concentration −7.0,106%
same,Percent Growth,HL-60(TB); Log10 Concentration −8.0,90%
same,CC50,HL-60(TB); read-out: LC50,> 100 µM
same,GI50,K-562,2790 nM
same,TGI,K-562,9.11 µM
same,Percent Growth,K-562; Log10 Concentration −4.0,−42%
same,Percent Growth,K-562; Log10 Concentration −5.0,−4%
same,Percent Growth,K-562; Log10 Concentration −6.0,93%
same,Percent Growth,K-562; Log10 Concentration −7.0,95%
same,Percent Growth,K-562; Log10 Concentration −8.0,100%
same,TGI,MOLT-4,13.3 µM
same,Percent Growth,MOLT-4; Log10 Concentration −4.0,−49%
same,Percent Growth,MOLT-4; Log10 Concentration −5.0,7%
same,Percent Growth,MOLT-4; Log10 Concentration −6.0,95%
same,Percent Growth,MOLT-4; Log10 Concentration −7.0,116%
same,Percent Growth,MOLT-4; Log10 Concentration −8.0,100%
same,TGI,SR,15.4 µM
same,Percent Growth,SR; Log10 Concentration −4.0,−47%
same,Percent Growth,SR; Log10 Concentration −5.0,11%
same,Percent Growth,SR; Log10 Concentration −6.0,75%
same,Percent Growth,SR; Log10 Concentration −7.0,95%
same,Percent Growth,SR; Log10 Concentration −8.0,118%
same,GI50,LOX IMVI,10.2 µM
same,TGI,LOX IMVI,23.9 µM
same,Percent Growth,LOX IMVI; Log10 Concentration −4.0,−84%
same,Percent Growth,LOX IMVI; Log10 Concentration −5.0,51%
same,Percent Growth,LOX IMVI; Log10 Concentration −6.0,94%
same,Percent Growth,LOX IMVI; Log10 Concentration −7.0,99%
same,Percent Growth,LOX IMVI; Log10 Concentration −8.0,102%
same,GI50,M14,6.78 µM
same,Percent Growth,M14; Log10 Concentration −4.0,−82%
same,Percent Growth,M14; Log10 Concentration −5.0,42%
same,Percent Growth,M14; Log10 Concentration −6.0,91%
same,Percent Growth,M14; Log10 Concentration −7.0,96%
same,Percent Growth,M14; Log10 Concentration −8.0,91%
same,GI50,SK-MEL-28,3.35 µM
same,TGI,SK-MEL-28,14 µM
same,Percent Growth,SK-MEL-28; Log10 Concentration −4.0,−81%
same,Percent Growth,SK-MEL-28; Log10 Concentration −5.0,14%
same,Percent Growth,SK-MEL-28; Log10 Concentration −6.0,90%
same,Percent Growth,SK-MEL-28; Log10 Concentration −7.0,100%
same,Percent Growth,SK-MEL-28; Log10 Concentration −8.0,98%
same,GI50,SF-268,9.67 µM
same,TGI,SF-268,24.4 µM
same,Percent Growth,SF-268; Log10 Concentration −4.0,−78%
same,Percent Growth,SF-268; Log10 Concentration −5.0,49%
same,Percent Growth,SF-268; Log10 Concentration −6.0,96%
same,Percent Growth,SF-268; Log10 Concentration −7.0,104%
same,Percent Growth,SF-268; Log10 Concentration −8.0,97%
same,GI50,SF-295,50.8 µM
same,TGI,SF-295,>100 µM
same,Percent Growth,SF-295; Log10 Concentration −4.0,32%
same,Percent Growth,SF-295; Log10 Concentration −5.0,94%
same,Percent Growth,SF-295; Log10 Concentration −6.0,96%
same,Percent Growth,SF-295; Log10 Concentration −7.0,95%
same,Percent Growth,SF-295; Log10 Concentration −8.0,90%
same,GI50,SNB-19,16.8 µM
same,TGI,SNB-19,15.1 µM
same,Percent Growth,SNB-19; Log10 Concentration −4.0,−71%
same,Percent Growth,SNB-19; Log10 Concentration −5.0,85%
same,Percent Growth,SNB-19; Log10 Concentration −6.0,96%
same,Percent Growth,SNB-19; Log10 Concentration −7.0,97%
same,Percent Growth,SNB-19; Log10 Concentration −8.0,98%
same,GI50,SNB-75,10.4 µM
same,TGI,SNB-75,2.256−5 M
same,Percent Growth,SNB-75; Log10 Concentration −4.0,−96%
same,Percent Growth,SNB-75; Log10 Concentration −5.0,52%
same,Percent Growth,SNB-75; Log10 Concentration −6.0,73%
same,Percent Growth,SNB-75; Log10 Concentration −7.0,75%
same,Percent Growth,SNB-75; Log10 Concentration −8.0,75%
same,GI50,HCC-2998,18.5 µM
same,TGI,HCC-2998,36 µM
same,Percent Growth,HCC-2998; Log10 Concentration −4.0,−77%
same,Percent Growth,HCC-2998; Log10 Concentration −5.0,96%
same,Percent Growth,HCC-2998; Log10 Concentration −6.0,104%
same,Percent Growth,HCC-2998; Log10 Concentration −7.0,105%
same,Percent Growth,HCC-2998; Log10 Concentration −8.0,99%
same,GI50,SW-620,2720 nM
same,TGI,SW-620,12.3 µM
same,Percent Growth,SW-620; Log10 Concentration −4.0,−74%
same,Percent Growth,SW-620; Log10 Concentration −5.0,7%
same,Percent Growth,SW-620; Log10 Concentration −6.0,83%
same,Percent Growth,SW-620; Log10 Concentration −7.0,96%
same,Percent Growth,SW-620; Log10 Concentration −8.0,100%
same,GI50,ACHN,2760 nM
same,TGI,ACHN,12.3 µM
same,Percent Growth,ACHN; Log10 Concentration −4.0,−80%
same,Percent Growth,ACHN; Log10 Concentration −5.0,8%
same,Percent Growth,ACHN; Log10 Concentration −6.0,83%
same,Percent Growth,ACHN; Log10 Concentration −7.0,97%
same,Percent Growth,ACHN; Log10 Concentration −8.0,94%
same,GI50,CAKI-1,3.43 µM
same,TGI,CAKI-1,15.7 µM
same,Percent Growth,CAKI-1; Log10 Concentration −4.0,−98%
same,Percent Growth,CAKI-1; Log10 Concentration −5.0,24%
same,Percent Growth,CAKI-1; Log10 Concentration −6.0,80%
same,Percent Growth,CAKI-1; Log10 Concentration −7.0,92%
same,Percent Growth,CAKI-1; Log10 Concentration −8.0,89%
same,GI50,UO-31,3.34 µM
same,TGI,UO-31,16.1 µM
same,Percent Growth,UO-31; Log10 Concentration −4.0,−81%
same,Percent Growth,UO-31; Log10 Concentration −5.0,21%
same,Percent Growth,UO-31; Log10 Concentration −6.0,82%
same,Percent Growth,UO-31; Log10 Concentration −7.0,91%
same,Percent Growth,UO-31; Log10 Concentration −8.0,91%
same,GI50,HS 578T,18.4 µM
same,TGI,HS 578T; HS 57BT,66 µM
same,Percent Growth,"HS 578T; HS 57BT, Log10 Concentration −4.0",−16%
same,Percent Growth,"HS 578T; HS 57BT, Log10 Concentration −5.0",74%
same,Percent Growth,"HS 578T; HS 57BT, Log10 Concentration −6.0",89%
same,Percent Growth,"HS 578T; HS 57BT, Log10 Concentration −7.0",87%
same,Percent Growth,"HS 578T; HS 57BT, Log10 Concentration −8.0",92%
same,GI50,T-47D,2380 nM
same,TGI,T-47D,12.6 µM
same,Percent Growth,T-47D; Log10 Concentration −4.0,−65%
same,Percent Growth,T-47D; Log10 Concentration −5.0,7%
same,Percent Growth,T-47D; Log10 Concentration −6.0,76%
same,Percent Growth,T-47D; Log10 Concentration −7.0,88%
same,Percent Growth,T-47D; Log10 Concentration −8.0,82%
same,GI50,NCI-H226,10.5 µM
same,TGI,NCI-H226,40.2 µM
same,Percent Growth,NCI-H226; Log10 Concentration −4.0,−3%
same,Percent Growth,NCI-H226; Log10 Concentration −5.0,52%
same,Percent Growth,NCI-H226; Log10 Concentration −6.0,93%
same,Percent Growth,NCI-H226; Log10 Concentration −7.0,96%
same,Percent Growth,NCI-H226; Log10 Concentration −8.0,99%
